Measurements: patent US7541368B2, “Pyrazoles as inhibitors of tumor necrosis factor” (Aventis Pharmaceuticals Inc., priority 2003, dated 2009)
pIC50: −log10 of the molar value.

What follows are compounds tested on TNF-alpha release in THP-1 cells (assay: LPS-induced TNF-alpha release in THP-1 cells). Settings: Homo sapiens, THP-1, LPS-stimulated THP-1 cells; read-out: 50% inhibition in the LPS-induced TNF-alpha release in THP-1 cells assay at concentrations within the range.
Type: cell-based
In short: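 Undifferentiated THP-1 monocytes (1×10^6 cells/ml, 1% FCS) preincubated 1 h at 37° C with compound (1×10^−9 to 1×10^−6 M, 0.3% DMSO), then stimulated with LPS (20 μg/ml) for 18 h. Supernatant TNF-alpha measured by sandwich ELISA (TMB read-out), interpolated from a log/log standard curve (0.125-16 ng/ml).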

**Q.** With `Cc1ccc(-n2nc(C(C)(C)C)cc2NC(=O)Nc2cccc(CC3CCN(C(=O)C4(C)CC4)CC3)c2)cc1` [Compound A16, 1-(5-tert-Butyl-2-p-tolyl-2H-pyrazol-3-yl)-3-{3-[1-(1-methyl-cyclopropanecarbonyl)-piperidin-4-ylmethyl]-phenyl}-urea] as the compound, how does the pIC50 read?
**A.** The pIC50 was 6.30 to 8.00.

**Q.** How did the pIC50 turn out when `Cc1ccc(-n2nc(C(C)(C)C)cc2NC(=O)Nc2cccc(CC3CCN(C(=O)c4sc(C)nc4C)CC3)c2)cc1` [Compound A28, 1-(5-tert-Butyl-2-p-tolyl-2H-pyrazol-3-yl)-3-{3-[1-(2,4-dimethyl-thiazole-5-carbonyl)-piperidin-4-ylmethyl]-phenyl}-urea] was run?
**A.** The pIC50 was 6.30 to 8.00.

**Q.** `Cc1ccc(-n2nc(C(C)(C)C)cc2NC(=O)Nc2cccc(CC3CCN(C(=O)c4csc(-c5cccnc5)n4)CC3)c2)cc1` [Compound A32, 1-(5-tert-Butyl-2-p-tolyl-2H-pyrazol-3-yl)-3-{3-[1-(2-pyridin-3-yl-thiazole-4-carbonyl)-piperidin-4-ylmethyl]-phenyl}-urea] was tested. Which pIC50 did it give?
**A.** The pIC50 was 6.30 to 8.00.

**Q.** `CC(=O)NCC(=O)N1C2CCC1CC(Cc1cccc(NC(=O)Nc3cc(C(C)(C)C)nn3-c3ccc(C)cc3)c1)C2` (stereo not drawn) [Compound A766, N-[2-(3-{3-[3-(5-tert-Butyl-2-p-tolyl-2H-pyrazol-3-yl)-ureido]-benzyl}-8-aza-bicyclo[3.2.1]oct-8-yl)-2-oxo-ethyl]-acetamide] was tested. Which pIC50 did it give?
**A.** The pIC50 was 6.30 to 8.00.

**Q.** How did the pIC50 turn out when `COc1cccc(C(=O)N2C3CCC2CC(Cc2cccc(NC(=O)Nc4cc(C(C)(C)C)nn4-c4ccc(C)cc4)c2)C3)c1OC` (stereo not drawn) [Compound A786, 1-(5-tert-Butyl-2-p-tolyl-2H-pyrazol-3-yl)-3-{3-[8-(2,3-dimethoxy-benzoyl)-8-aza-bicyclo[3.2.1]oct-3-ylmethyl]-phenyl}-urea] was run?
**A.** Its pIC50 is 6.30 to 8.00.

**Q.** `COc1cccc(CC(=O)N2C3CCC2CC(Cc2ccc(NC(=O)Nc4cc(C(C)(C)C)nn4-c4ccc(C)cc4)cc2)C3)c1OC` (stereo not drawn) [Compound A1312, 1-(5-tert-Butyl-2-p-tolyl-2H-pyrazol-3-yl)-3-(4-{8-[2-(2,3-dimethoxy-phenyl)-acetyl]-8-aza-bicyclo[3.2.1]oct-3-ylmethyl}-phenyl)-urea] was tested. Which pIC50 did it give?
**A.** Its pIC50 is 6.30 to 8.00.

**Q.** How did the pIC50 turn out when `Cc1ccc(-n2nc(C(C)(C)C)cc2NC(=O)Nc2ccc(CC3CC4CCC(C3)N4C(=O)Cc3ccc(F)cc3F)cc2)cc1` (stereo not drawn) [Compound A1364, 1-(5-tert-Butyl-2-p-tolyl-2H-pyrazol-3-yl)-3-(4-{8-[2-(2,4-difluoro-phenyl)-acetyl]-8-aza-bicyclo[3.2.1]oct-3-ylmethyl}-phenyl)-urea] was run?
**A.** The pIC50 was 6.30 to 8.00.

**Q.** How did the pIC50 turn out when `COc1ccccc1CC(=O)N1C2CCC1CC(Cc1ccc(NC(=O)Nc3cc(C(C)(C)C)nn3-c3ccc(C)cc3)cc1)C2` (stereo not drawn) [Compound A1404, 1-(5-tert-Butyl-2-p-tolyl-2H-pyrazol-3-yl)-3-(4-{8-[2-(2-methoxy-phenyl)-acetyl]-8-aza-bicyclo[3.2.1]oct-3-ylmethyl}-phenyl)-urea] was run?
**A.** The pIC50 was 6.30 to 8.00.

**Q.** With `COc1cc(N)c(Cl)cc1C(=O)N1C2CCC1CC(Cc1ccc(NC(=O)Nc3cc(C(C)(C)C)nn3-c3ccc(C)cc3)cc1)C2` (stereo not drawn) [Compound A1441, 1-{4-[8-(4-Amino-5-chloro-2-methoxy-benzoyl)-8-aza-bicyclo[3.2.1]oct-3-ylmethyl]-phenyl}-3-(5-tert-butyl-2-p-tolyl-2H-pyrazol-3-yl)-urea] as the compound, how does the pIC50 read?
**A.** Its pIC50 is 6.30 to 8.00.

**Q.** `Cc1ccc(-n2nc(C(C)(C)C)cc2NC(=O)Nc2ccc(CC3CCN(C(=O)C4=Cc5occc5CC4)CC3)cc2)cc1` [Compound A1642, 1-(5-tert-Butyl-2-p-tolyl-2H-pyrazol-3-yl)-3-{4-[1-(4,5-dihydro-benzofuran-6-carbonyl)-piperidin-4-ylmethyl]-phenyl}-urea] was tested. Which pIC50 did it give?
**A.** The pIC50 was 6.30 to 8.00.

**Q.** `COc1ccc(OC)c(CC(=O)N2CCC(Cc3cccc(NC(=O)Nc4cc(C(C)(C)C)nn4-c4ccc(C)cc4)c3)CC2)c1` [Compound A1646, 1-(5-tert-Butyl-2-p-tolyl-2H-pyrazol-3-yl)-3-(3-{1-[2-(2,5-dimethoxy-phenyl)-acetyl]-piperidin-4-ylmethyl}-phenyl)-urea] was tested. Which pIC50 did it give?
**A.** The pIC50 was 6.30 to 8.00.

**Q.** With `COc1ccc(OC)c(C(=O)N2C3CCC2CC(Cc2ccc(NC(=O)Nc4cc(C(C)(C)C)nn4-c4ccc(C)cc4)cc2)C3)c1` (stereo not drawn) [Compound A1647, 1-(5-tert-Butyl-2-p-tolyl-2H-pyrazol-3-yl)-3-{4-[8-(2,5-dimethoxy-benzoyl)-8-aza-bicyclo[3.2.1]oct-3-ylmethyl]-phenyl}-urea] as the compound, how does the pIC50 read?
**A.** Its pIC50 is 6.30 to 8.00.

What follows are compounds tested against T1, Inactive N-terminal His6 tagged murine P38 (Mus musculus, UniProt P47811) (assay: p38 cascade assay (HTRF; inactive p38 activated by MKK-6, ATF-2 phosphorylation)). Settings: inactive p38 preincubated with compound, then MKK-6, ATF-2, ATP; read-out: 50% inhibition in the p38 cascade assay at concentrations within the range.
T1 construct: His6 (N); made in house
T1 sequence (P47811 whole entry): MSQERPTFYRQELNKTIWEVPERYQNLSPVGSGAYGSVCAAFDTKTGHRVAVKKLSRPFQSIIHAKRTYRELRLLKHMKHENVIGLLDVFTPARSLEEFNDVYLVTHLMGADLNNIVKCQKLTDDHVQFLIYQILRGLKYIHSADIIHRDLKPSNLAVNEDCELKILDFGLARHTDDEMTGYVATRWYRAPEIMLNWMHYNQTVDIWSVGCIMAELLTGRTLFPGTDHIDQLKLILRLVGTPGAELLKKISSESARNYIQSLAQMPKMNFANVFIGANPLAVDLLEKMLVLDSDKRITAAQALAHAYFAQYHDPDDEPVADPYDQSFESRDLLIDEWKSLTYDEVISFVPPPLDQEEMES
Type: biochemical
Procedure: The homogeneous time resolved fluorescence method (HTRF) assay measured the phosphorylation of human activating transcription factor (ATF)-2 protein by P38 following activation by MKK-6 and was run in A384 well plate format. […] MBP-tagged mouse MKK-6 (final concentration 50 nM), GST-tagged ATF-2 (fmal concentration 200 nM) and ATP (final concentration 50 μM) were then added and the incubation continued for 90 min. p38, MKK-6 and ATF-2 were prepared in the Protein Production Group, Aventis Pharmaceuticals. XL665 labeled anti-GST antibody (Cis Bio International) and cryptate labeled anti-pbospho-ATF2 antibody (Cis Bio International) were then added to generate the specific signal proportional to the phosphorylation of the substrate. The close proximity of XL665 labeled anti-GST antibody/phosphorylated GST-ATF2 complex and the cryptate labeled anti-phospho-ATF2 antibody results in a fluorescence transfer from cryptate to XL665. The resulting fluorescence signal was than read on a LJL Acquest set at multi-method mode using a fluorescence filter set (E=360 nm, Em=615/665 nm) with UV dichroic mirror (Integration time: 300000 μs). The results are reported as IC50 values. Compounds were tested over the concentration range of 3×10^−10M to 3×10^−5M.

**Q.** With `Cc1ccc(-n2nc(C(C)(C)C)cc2NC(=O)Nc2cccc(CC3CCN(C(=O)C4(C)CC4)CC3)c2)cc1` [Compound A16, 1-(5-tert-Butyl-2-p-tolyl-2H-pyrazol-3-yl)-3-{3-[1-(1-methyl-cyclopropanecarbonyl)-piperidin-4-ylmethyl]-phenyl}-urea] as the compound, how does the pIC50 read?
**A.** The pIC50 was 7.00 to 8.00.

**Q.** How did the pIC50 turn out when `Cc1ccc(-n2nc(C(C)(C)C)cc2NC(=O)Nc2cccc(CC3CCN(C(=O)c4sc(C)nc4C)CC3)c2)cc1` [Compound A28, 1-(5-tert-Butyl-2-p-tolyl-2H-pyrazol-3-yl)-3-{3-[1-(2,4-dimethyl-thiazole-5-carbonyl)-piperidin-4-ylmethyl]-phenyl}-urea] was run?
**A.** Its pIC50 is 7.00 to 8.00.

**Q.** `Cc1ccc(-n2nc(C(C)(C)C)cc2NC(=O)Nc2cccc(CC3CCN(C(=O)c4csc(-c5cccnc5)n4)CC3)c2)cc1` [Compound A32, 1-(5-tert-Butyl-2-p-tolyl-2H-pyrazol-3-yl)-3-{3-[1-(2-pyridin-3-yl-thiazole-4-carbonyl)-piperidin-4-ylmethyl]-phenyl}-urea] was tested. Which pIC50 did it give?
**A.** Its pIC50 is 7.00 to 8.00.

**Q.** How did the pIC50 turn out when `COC(=O)CCC(=O)N1CCC(Cc2cccc(NC(=O)Nc3cc(C(C)(C)C)nn3-c3ccc(C)cc3)c2)CC1` [Compound A174, 4-(4-{3-[3-(5-tert-Butyl-2-p-tolyl-2H-pyrazol-3-yl)-ureido]-benzyl}-piperidin-1-yl)-4-oxo-butyric acid methyl ester] was run?
**A.** The pIC50 was 7.00 to 8.00.

**Q.** `Cc1ccc(-n2nc(C(C)(C)C)cc2NC(=O)Nc2ccc(CC3CCN(C(=O)c4ccc(O)nc4)CC3)cc2)cc1` [Compound A333, 1-(5-tert-Butyl-2-p-tolyl-2H-pyrazol-3-yl)-3-{4-[1-(6-hydroxy-pyridine-3-carbonyl)-piperidin-4-ylmethyl]-phenyl}-urea] was tested. Which pIC50 did it give?
**A.** Its pIC50 is 7.00 to 8.00.

**Q.** `Cc1ccc(-n2nc(C(C)(C)C)cc2NC(=O)Nc2ccc(CC3CCN(C(=O)c4coc5c4C(=O)CCC5)CC3)cc2)cc1` [Compound A342, 1-(5-tert-Butyl-2-p-tolyl-2H-pyrazol-3-yl)-3-{4-[1-(4-oxo-4,5,6,7-tetrahydro-benzofuran-3-carbonyl)-piperidin-4-ylmethyl]-phenyl}-urea] was tested. Which pIC50 did it give?
**A.** The pIC50 was 7.00 to 8.00.

**Q.** How did the pIC50 turn out when `CC(=O)Nc1cccc(C(=O)N2C3CCC2CC(Cc2cccc(NC(=O)Nc4cc(C(C)(C)C)nn4-c4ccc(C)cc4)c2)C3)c1` (stereo not drawn) [Compound A707, N-[3-(3-{3-[3-(5-tert-Butyl-2-p-tolyl-2H-pyrazol-3-yl)-ureido]-benzyl}-8-aza-bicyclo[3.2.1]octane-8-carbonyl)-phenyl]-acetamide] was run?
**A.** The pIC50 was 7.00 to 8.00.

**Q.** `Cc1ccc(-n2nc(C(C)(C)C)cc2NC(=O)Nc2cccc(CC3CC4CCC(C3)N4S(=O)(=O)c3ccc4c(c3)OCCN4C)c2)cc1` (stereo not drawn) [Compound A880, 1-(5-tert-Butyl-2-p-tolyl-2H-pyrazol-3-yl)-3-{3-[8-(4-methyl-3,4-dihydro-2H-benzo[1,4]oxazine-7-sulfonyl)-8-aza-bicyclo[3.2.1]oct-3-ylmethyl]-phenyl}-urea] was tested. Which pIC50 did it give?
**A.** The pIC50 was 7.00 to 8.00.

**Q.** `COc1ccc(OC(=O)N2CCC(Cc3ccc(NC(=O)Nc4cc(C(C)(C)C)nn4-c4ccc(C)cc4)cc3)CC2)cc1` [Compound A1605, 4-{4-[3-(5-tert-Butyl-2-p-tolyl-2H-pyrazol-3-yl)-ureido]-benzyl}-piperidine-1-carboxylic acid 4-methoxy-phenyl ester] was tested. Which pIC50 did it give?
**A.** The pIC50 was 7.00 to 8.00.

**Q.** How did the pIC50 turn out when `CC(=O)N1CCC(Cc2ccc(NC(=O)Nc3cc(C(C)(C)C)nn3-c3ccc(C)cc3)cc2)CC1` [Compound A1637, 1-[4-(1-acetyl-piperidin-4-ylmethyl)-phenyl]-3-(5-tert-butyl-2-p-tolyl-2H-pyrazol-3-yl)-urea] was run?
**A.** The pIC50 was 7.00 to 8.00.

**Q.** `Cc1ccc(-n2nc(C(C)(C)C)cc2NC(=O)Nc2cccc(CC3CCN(C(=O)c4cc5ccccc5o4)CC3)c2)cc1` [Compound A1638, 1-{3-[1-(benzofuran-2-carbonyl)-piperidin-4-ylmethyl]-phenyl}-3-(5-tert-butyl-2-p-tolyl-2H-pyrazol-3-yl)-urea] was tested. Which pIC50 did it give?
**A.** The pIC50 was 7.00 to 8.00.

**Q.** With `Cc1ccc(-n2nc(C(C)(C)C)cc2NC(=O)Nc2cccc(CC3CCN(C(=O)C4CCNCC4)CC3)c2)cc1` [Compound A1639, 1-(5-tert-Butyl-2-p-tolyl-2H-pyrazol-3-yl)-3-{3-[1-(piperidine-4-carbonyl)-piperidin-4-ylmethyl]-phenyl}-urea] as the compound, how does the pIC50 read?
**A.** The pIC50 was 7.00 to 8.00.

**Q.** How did the pIC50 turn out when `Cc1ccc(-n2nc(C(C)(C)C)cc2NC(=O)Nc2ccc(CC3CC4CCC(C3)N4C(=O)c3cccc(C)n3)cc2)cc1` (stereo not drawn) [Compound A1640, 1-(5-tert-Butyl-2-p-tolyl-2H-pyrazol-3-yl)-3-{4-[8-(6-methyl-pyridine-2-carbonyl)-8-aza-bicyclo[3.2.1]oct-3-ylmethyl]-phenyl}-urea] was run?
**A.** Its pIC50 is 7.00 to 8.00.

**Q.** With `CC(=O)C(=CC(=O)c1ccccc1)NC(=O)N1CCC(Cc2ccc(NC(=O)Nc3cc(C(C)(C)C)nn3-c3ccc(C)cc3)cc2)CC1` [Compound A1641, 4-{4-[3-(5-tert-Butyl-2-p-tolyl-2H-pyrazol-3-yl)-ureido]-benzyl}-piperidine-1-carboxylic acid (1-acetyl-3-oxo-3-phenyl-propenyl)-amide] as the compound, how does the pIC50 read?
**A.** The pIC50 was 7.00 to 8.00.

**Q.** How did the pIC50 turn out when `Cc1ccc(-n2nc(C(C)(C)C)cc2NC(=O)Nc2ccc(CC3CCN(C(=O)O[C@@H]4C[C@H](C)CC[C@H]4C(C)C)CC3)cc2)cc1` [Compound A1644, 4-{4-[3-(5-tert-Butyl-2-p-tolyl-2H-pyrazol-3-yl)-ureido]-benzyl}-piperidin-1-carboxylic acid (1R,2S,5R)-2-isopropyl-5-methyl-cyclohexyl ester] was run?
**A.** Its pIC50 is 7.00 to 8.00.
